# Reference: ChEMBL document CHEMBL5584246, “Novel dihydropyrimidines as promising EGFR & HER2 inhibitors: Insights from experimental and computational studies” (Eur J Med Chem, 2024)
# Experiments:
# [1] = system: MCF7; assay: Cytotoxicity against human MCF7 cells assessed as inhibition of cell growth measured after 3 days by MTT assay; type: functional, cell-based; details: MCF7, 72 h
# [2] = Cytotoxicity against African green monkey Vero cells assessed as inhibition of cell growth measured after 3 days by MTT assay; type: toxicity, cell-based; details: African green monkey (Chlorocebus sabaeus)
# [3] = Inhibition of HER2 expression in human MCF7 cells assessed as positive expression region (M2) at 25 nM incubated for 24 hrs by flow cytometry analysis (reference value: 99.09%); type: functional
# [4] = Inhibition of EGFR expression in human MCF7 cells assessed as negative expression region (M1) at 50 nM incubated for 24 hrs by flow cytometry analysis (reference value: 0.66%); type: functional
# [5] = Inhibition of EGFR expression in human MCF7 cells assessed as negative expression region (M1) at 100 nM incubated for 24 hrs by flow cytometry analysis (reference value: 0.66%); type: functional
# [6] = Inhibition of HER2 expression in human MCF7 cells assessed as positive expression region (M2) at 1000 nM incubated for 24 hrs by flow cytometry analysis (reference value: 99.09%); type: functional
# [7] = Inhibition of EGFR expression in human MCF7 cells assessed as negative expression region (M1) at 500 nM incubated for 24 hrs by flow cytometry analysis (reference value: 0.66%); type: functional
# [8] = Inhibition of HER2 expression in human MCF7 cells assessed as negative expression region (M1) at 50 nM incubated for 24 hrs by flow cytometry analysis (reference value: 0.98%); type: functional
# [9] = Inhibition of EGFR expression in human MCF7 cells assessed as positive expression region (M2) at 25 nM incubated for 24 hrs by flow cytometry analysis (reference value: 99.36%); type: functional
# [10] = Inhibition of EGFR expression in human MCF7 cells assessed as positive expression region (M2) at 1000 nM incubated for 24 hrs by flow cytometry analysis (reference value: 99.36%); type: functional
# [11] = Inhibition of HER2 expression in human MCF7 cells assessed as negative expression region (M1) at 500 nM incubated for 24 hrs by flow cytometry analysis (reference value: 0.98%); type: functional
# [12] = Inhibition of HER2 expression in human MCF7 cells assessed as negative expression region (M1) at 1000 nM incubated for 24 hrs by flow cytometry analysis (reference value: 0.98%); type: functional
# [13] = Inhibition of HER2 expression in human MCF7 cells assessed as positive expression region (M2) at 50 nM incubated for 24 hrs by flow cytometry analysis (reference value: 99.09%); type: functional
# [14] = Inhibition of HER2 expression in human MCF7 cells assessed as positive expression region (M2) at 500 nM incubated for 24 hrs by flow cytometry analysis (reference value: 99.09%); type: functional
# [15] = Inhibition of HER2 expression in human MCF7 cells assessed as positive expression region (M2) at 100 nM incubated for 24 hrs by flow cytometry analysis (reference value: 99.09%); type: functional
# [16] = Inhibition of EGFR expression in human MCF7 cells assessed as negative expression region (M1) at 25 nM incubated for 24 hrs by flow cytometry analysis (reference value: 0.66%); type: functional
# [17] = Inhibition of HER2 expression in human MCF7 cells assessed as negative expression region (M1) at 25 nM incubated for 24 hrs by flow cytometry analysis (reference value: 0.98%); type: functional
# [18] = Inhibition of EGFR expression in human MCF7 cells assessed as positive expression region (M2) at 500 nM incubated for 24 hrs by flow cytometry analysis (reference value: 99.36%); type: functional
# [19] = Inhibition of HER2 expression in human MCF7 cells assessed as negative expression region (M1) at 100 nM incubated for 24 hrs by flow cytometry analysis (reference value: 0.98%); type: functional
# [20] = Inhibition of EGFR expression in human MCF7 cells assessed as negative expression region (M1) at 1000 nM incubated for 24 hrs by flow cytometry analysis (reference value: 0.66%); type: functional
# [21] = Inhibition of EGFR expression in human MCF7 cells assessed as positive expression region (M2) at 100 nM incubated for 24 hrs by flow cytometry analysis (reference value: 99.36%); type: functional
# [22] = Inhibition of EGFR expression in human MCF7 cells assessed as positive expression region (M2) at 50 nM incubated for 24 hrs by flow cytometry analysis (reference value: 99.36%); type: functional
SMILES,IC50 [1] [µM],IC50 at 3 days [2] [µM],also measured
COc1ccc(NC(=O)C2=C(C)NC(=O)NC2c2ccc(Cl)cc2)c(OC)c1 (stereo not drawn),32.4,62.7,
COc1ccc(NC(=O)C2=C(C)NC(=O)NC2c2c[nH]c3ccccc23)c(OC)c1 (stereo not drawn),20.2,42.6,
COc1ccc(NC(=O)C2=C(C)NC(=S)NC2c2ccc(C)cc2)c(OC)c1 (stereo not drawn),38.2,53.6,
COc1ccc(NC(=O)C2=C(C)NC(=S)NC2c2ccc(O)c(OC)c2)c(OC)c1 (stereo not drawn),20.3,42.5,
COc1ccc(NC(=O)C2=C(C)NC(=O)NC2c2ccccc2)c(OC)c1 (stereo not drawn),38.2,60.4,
COc1ccc(C2NC(=S)NC(C)=C2C(=O)Nc2ccc(OC)cc2OC)cc1 (stereo not drawn),28.1,32.8,
COc1ccc(NC(=O)C2=C(C)NC(=O)NC2c2ccc(N(C)C)cc2)c(OC)c1 (stereo not drawn),19.5,53.1,
COc1ccc(NC(=O)C2=C(C)NC(=S)NC2c2ccccc2O)c(OC)c1 (stereo not drawn),32.1,60.4,
CCOc1cc(C2NC(=O)NC(C)=C2C(=O)Nc2ccc(OC)cc2OC)ccc1O (stereo not drawn),21,58.2,
COc1ccc(NC(=O)C2=C(C)NC(=S)NC2/C=C\c2ccccc2)c(OC)c1 (stereo not drawn),24.5,47.3,
COc1ccc(NC(=O)C2=C(C)NC(=O)NC2c2ccc(Br)cc2)c(OC)c1 (stereo not drawn),31.6,49.4,
COc1ccc(NC(=O)C2=C(C)NC(=O)NC2c2ccccc2[N+](=O)[O-])c(OC)c1 (stereo not drawn),40.1,55.3,
COc1ccc(NC(=O)C2=C(C)NC(=O)NC2)c(OC)c1,81.5,87.2,
CCOc1cc(C2NC(=S)NC(C)=C2C(=O)Nc2ccc(OC)cc2OC)ccc1O (stereo not drawn),25.3,57.4,
COc1ccc(C2NC(=O)NC(C)=C2C(=O)Nc2ccc(OC)cc2OC)cc1 (stereo not drawn),24.3,56.2,
COc1ccc(NC(=O)C2=C(C)NC(=S)NC2c2ccccc2)c(OC)c1 (stereo not drawn),45.3,53.4,
COc1ccc(NC(=O)C2=C(C)NC(=O)NC2c2ccc(OCc3ccccc3)c(OC)c2)c(OC)c1 (stereo not drawn),9.38,18.4,inhibition at 0.025 µM [3]: 43%; inhibition at 0.05 µM [4]: 66.7%; inhibition at 0.1 µM [5]: 84.3%; inhibition at 1 µM [6]: 3.21%; inhibition at 0.5 µM [7]: 91.1%; inhibition at 0.05 µM [8]: 77.9%; inhibition at 0.025 µM [9]: 63.2%; inhibition at 1 µM [10]: 1.49%; inhibition at 0.5 µM [11]: 95%; inhibition at 1 µM [12]: 96.9%; inhibition at 0.05 µM [13]: 22.4%; inhibition at 0.5 µM [14]: 5.16%; inhibition at 0.1 µM [15]: 11.6%; inhibition at 0.025 µM [16]: 37.6%; inhibition at 0.025 µM [17]: 57.5%; inhibition at 0.5 µM [18]: 9.15%; inhibition at 0.1 µM [19]: 88.7%; inhibition at 1 µM [20]: 98.6%; inhibition at 0.1 µM [21]: 16.1%; inhibition at 0.05 µM [22]: 33.8%
COc1ccc(NC(=O)C2=C(C)NC(=S)NC2c2ccc(OC)c(OC)c2)c(OC)c1 (stereo not drawn),17.3,43.9,
COc1ccc(NC(=O)C2=C(C)NC(=S)NC2c2ccc(O)cc2)c(OC)c1 (stereo not drawn),28.6,40,
